The values below are quoted from earlier work in US20040131704A1, “A method of organic and all natural treatment, prevention and relief of diaper dermatitis and other related skin irritations” (priority 2003, published 2004).

In one data set the test system is epithelial formations. To be noted: aqueous solution in strengths of 0.30 percent.
Data set [1] deals with 18 strains of gram positive and gram-negative bacteria.
For data set [2] the following is noted: topical application of Lavender oil.
The conditions of data set [3]: relative activity of triterpenoids.

As for `NC(=O)NC1NC(=O)NC1=O` (stereo not shown) [Allantoin], the “action in strengthening epithelial formations” value in the data set on epithelial formations is “powerful action”. Regarding `C=CC(C)(O)CCC=C(C)C` (stereo not shown) [Linalool], in data set [1], the “number of strains with antibacterial activity” value was 17 out of 18 strains. In data set [2], the “time of peak in the blood” value was 19 min and the “time to detection in the blood” value was “five”.

For the compound `CC1(C)CC[C@]2(C)CC[C@]3(C)C(=CC[C@@H]4[C@@]5(C)CC[C@H](O)C(C)(C)[C@@H]5CC[C@]43C)[C@@H]2C1` [beta-amyrin], the anti-inflammatory activity result in data set [3] was “less active than the free diol”. Regarding `CC12CCC(CC1)C(C)(C)O2` [cineole], the “number of strains with antibacterial activity” value in data set [1] is 16 out of 18 strains. With `CC1=CC[C@@]2(C)[C@H]([C@@H]1C)[C@H]1CC[C@@H]3[C@@]4(C)CC[C@H](O)C(C)(C)[C@@H]4CC[C@@]3(C)[C@]1(C)C[C@@H]2O` [faradiol], the anti-inflammatory activity result in data set [3] is “most active of the tested compounds and equals indomethacian in activity”.

Consider `C=CC(C)(CCC=C(C)C)OC(C)=O` (stereo not shown) [linalyl acetate], for which, in data set [2], the “time of peak in the blood” value is 19 min and the “time to detection in the blood” value is recorded as “five”. With `C=C(C)[C@@H]1CC[C@]2(C)CC[C@]3(C)[C@H](CC[C@@H]4[C@@]5(C)CC[C@H](O)C(C)(C)[C@@H]5CC[C@]43C)[C@@H]12` [lupeol], in data set [3], the anti-inflammatory activity result was “less active than the free diol”. Take `CC1=CCC2(C)CCC3(C)C(CCC4C5(C)CCC(O)C(C)(C)C5CCC43C)C2C1C` (stereo not shown) [psi-taraxzsterol]: in data set [3], the anti-inflammatory activity result is recorded as “less active than the free diol”.

In the case of `C=C1CC[C@]2(C)CC[C@]3(C)[C@H](CC[C@@H]4[C@@]5(C)CC[C@H](O)C(C)(C)[C@@H]5CC[C@]43C)[C@H]2[C@@H]1C` [taraxasterol], the anti-inflammatory activity entry in data set [3] is “less active than the free diol”. Turning to faradoil monoester, in data set [3], the anti-inflammatory activity entry was “most relevant principle for the activity of the drug”.
